From ChEMBL document CHEMBL5512682, “Discovery of BMS-986308: A Renal Outer Medullary Potassium Channel Inhibitor for the Treatment of Heart Failure” (J Med Chem, 2024)
Values after ≈ are worked out from the molar mass of the structure shown.

Assays:
Cytochrome P450 2D6 = Cytochrome P450 2D6 (Homo sapiens, UniProt P10635); assay: Inhibition of CYP2D6 in human liver microsomes; format: ADME, Microsome
CYP2B6 = CYP2B6 (Homo sapiens, UniProt P20813); assay: Induction of CYP2B6 (unknown origin); format: ADME
[1] = biological target: Multidrug and toxin extrusion protein 1 (Homo sapiens, UniProt Q96FL8); assay: Inhibition of MATE1 (unknown origin)
[2] = Half-life in dog at 2 mg/kg, iv; format: ADME, organism-based, Canis lupus familiaris; conditions: in vivo
[3] = Cytotoxicity against human HepG2 cells; format: toxicity, cell-based
[4] = Tmax in male Sprague-Dawley rat at 5 mg/kg, po measured after 24 hrs by LC-MS/MS analysis; format: ADME, organism-based; conditions: in vivo
[5] = Tmax in Cynomolgus monkey at 5 mg/kg, po; format: ADME, organism-based, Macaca fascicularis; conditions: in vivo
[6] = Protein binding in human plasma assessed as unbound fraction; format: ADME, cell-free
[7] = AUC (0 to t) in dog at 5 mg/kg, po; format: ADME, organism-based, Canis lupus familiaris; conditions: in vivo
[8] = Oral bioavailability in Cynomolgus monkey at 5 mg/kg; format: ADME, organism-based, Macaca fascicularis; conditions: in vivo
[9] = biological target: Nuclear receptor subfamily 1 group I member 2 (Homo sapiens, UniProt O75469); assay: Activation of PXR (unknown origin)
[10] = biological target: ATP-sensitive inward rectifier potassium channel 10 (Homo sapiens, UniProt P78508); assay: Inhibition of Kir 4.1 (unknown origin)
[11] = AUC (0 to t) in mouse at 2 mg/kg, po; format: ADME, organism-based; conditions: in vivo
[12] = Permeability of compound from apical to basolateral side in human Caco-2 cells; format: ADME, cell-based; conditions: read-out: permeability
[13] = Volume of distribution at steady state in male Sprague-Dawley rat at 2 mg/kg, iv measured after 24 hrs by LC-MS/MS analysis; format: ADME, organism-based; conditions: in vivo, read-out: Vdss
[14] = biological target: Inward rectifier potassium channel 4 (Homo sapiens, UniProt P48050); assay: Inhibition of Kir 2.3 (unknown origin)
[15] = Protein binding in dog plasma assessed as unbound fraction; format: ADME, cell-free, Canis lupus familiaris
[16] = MRT in dog at 2 mg/kg, iv; format: ADME, organism-based, Canis lupus familiaris; conditions: in vivo
[17] = AUC (0 to t) in male Sprague-Dawley rat at 5 mg/kg, po measured after 24 hrs by LC-MS/MS analysis; format: ADME, organism-based; conditions: in vivo
[18] = Protein binding in mouse plasma assessed as unbound fraction; format: ADME, cell-free
Cytochrome P450 2C19 = Cytochrome P450 2C19 (Homo sapiens, UniProt P33261); assay: Inhibition of CYP2C19 in human liver microsomes; format: ADME, Microsome
[19] = Glutathione reactivity in human liver microsomes assessed as GSH-adduct formation at 10 uM incubated for 60 mins in presence of NADPH and GSH by HPLC-MS analysis; format: ADME, Microsome; conditions: 1 h
[20] = biological target: Broad substrate specificity ATP-binding cassette transporter ABCG2 (Homo sapiens, UniProt Q9UNQ0); assay: Inhibition of BCRP (unknown origin)
[21] = biological target: Inward rectifier potassium channel 13 (Homo sapiens, UniProt O60928); assay: Inhibition of Kir 7.1 (unknown origin)
[22] = Cmax in mouse at 2 mg/kg, po; format: ADME, organism-based; conditions: in vivo
[23] = Protein binding in rat plasma assessed as unbound fraction; format: ADME, cell-free
[24] = Cmax in dog at 5 mg/kg, po; format: ADME, organism-based, Canis lupus familiaris; conditions: in vivo
[25] = MRT in Cynomolgus monkey at 2 mg/kg, iv; format: ADME, organism-based, Macaca fascicularis; conditions: in vivo
Cytochrome P450 3A4 [26] = biological target: T1, Cytochrome P450 3A4 (Homo sapiens, UniProt P08684); assay: Inhibition of CYP3A4 in human liver microsomes using testosterone as substrate; format: ADME, Microsome
[27] = Oral bioavailability in mouse at 5 mg/kg; format: ADME, organism-based; conditions: in vivo
[28] = Permeability of compound from basolateral to apical side in human Caco-2 cells; format: ADME, cell-based
[29] = Oral bioavailability in dog at 5 mg/kg; format: ADME, organism-based, Canis lupus familiaris; conditions: in vivo
[30] = Tmax in mouse at 2 mg/kg, po; format: ADME, organism-based; conditions: in vivo
Bile salt export pump = Bile salt export pump (Homo sapiens, UniProt O95342); assay: Inhibition of BSEP (unknown origin)
[31] = AUC (0 to t) in Cynomolgus monkey at 5 mg/kg, po; format: ADME, organism-based, Macaca fascicularis; conditions: in vivo
[32] = biological target: Inward rectifier potassium channel 2 (Homo sapiens, UniProt P63252); assay: Inhibition of Kir 2.1 (unknown origin)
[33] = biological target: Solute carrier organic anion transporter family member 1B3 (Homo sapiens, UniProt Q9NPD5); assay: Inhibition of OATP1B3 (unknown origin)
[34] = Solubility of compound at pH 7.4; format: physicochemical; conditions: buffer
[35] = Cmax in male Sprague-Dawley rat at 5 mg/kg, po measured after 24 hrs by LC-MS/MS analysis; format: ADME, organism-based; conditions: in vivo
[36] = Cmax in Cynomolgus monkey at 5 mg/kg, po; format: ADME, organism-based, Macaca fascicularis; conditions: in vivo
[37] = biological target: Hepatic sodium/bile acid cotransporter (Homo sapiens, UniProt Q14973); assay: Inhibition of NTCP (unknown origin)
[38] = biological target: Solute carrier organic anion transporter family member 1B1 (Homo sapiens, UniProt Q9Y6L6); assay: Inhibition of OATP1B1 (unknown origin)
[39] = Metabolic stability in rat liver microsomes assessed as parent compound remaining at 10 uM measured after 10 mins in presence of NADPH and GSH by UPLC-MS/MS analysis; format: ADME, Microsome; conditions: read-out: Stability
CYP1A2 = CYP1A2 (Homo sapiens, UniProt P05177); assay: Induction of CYP1A2 (unknown origin); format: ADME
[40] = Oral bioavailability in male Sprague-Dawley rat at 5 mg/kg measured after 24 hrs by LC-MS/MS analysis; format: ADME, organism-based; conditions: in vivo
[41] = Solubility of compound at pH 1.1; format: physicochemical; conditions: buffer
[42] = Volume of distribution at steady state in dog at 2 mg/kg, iv; format: ADME, organism-based, Canis lupus familiaris; conditions: in vivo, read-out: Vdss
[43] = Volume of distribution at steady state in mouse at 2 mg/kg, iv; format: ADME, organism-based; conditions: in vivo, read-out: Vdss
[44] = biological target: ATP-binding cassette sub-family C member 2 (Homo sapiens, UniProt Q92887); assay: Inhibition of MRP2 (unknown origin)
Cytochrome P450 2C8 = Cytochrome P450 2C8 (Homo sapiens, UniProt P10632); assay: Inhibition of CYP2C8 in human liver microsomes; format: ADME, Microsome
Cytochrome P450 2C9 = Cytochrome P450 2C9 (Homo sapiens, UniProt P11712); assay: Inhibition of CYP2C9 in human liver microsomes; format: ADME, Microsome
[45] = Half-life in Cynomolgus monkey at 2 mg/kg, iv; format: ADME, organism-based, Macaca fascicularis; conditions: in vivo
[46] = Protein binding in Cynomolgus monkey plasma assessed as unbound fraction; format: ADME, cell-free, Macaca fascicularis
Cytochrome P450 1A2 = Cytochrome P450 1A2 (Homo sapiens, UniProt P05177); assay: Inhibition of CYP1A2 in human liver microsomes; format: ADME, Microsome
[47] = Half-life in mouse at 2 mg/kg, iv; format: ADME, organism-based; conditions: in vivo
[48] = Volume of distribution at steady state in Cynomolgus monkey at 2 mg/kg, iv; format: ADME, organism-based, Macaca fascicularis; conditions: in vivo, read-out: Vdss
[49] = biological target: Organic anion transporter 3 (Homo sapiens, UniProt Q8TCC7); assay: Inhibition of OAT3 (unknown origin)
Cytochrome P450 2B6 = Cytochrome P450 2B6 (Homo sapiens, UniProt P20813); assay: Inhibition of CYP2B6 in human liver microsomes; format: ADME, Microsome
[50] = Metabolic stability in human liver microsomes assessed as parent compound remaining at 10 uM measured after 10 mins in presence of NADPH and GSH by UPLC-MS/MS analysis; format: ADME, Microsome; conditions: read-out: Stability
[51] = MRT in male Sprague-Dawley rat at 2 mg/kg, iv measured after 24 hrs by LC-MS/MS analysis; format: ADME, organism-based; conditions: in vivo
[52] = biological target: Solute carrier family 22 member 6 (Homo sapiens, UniProt Q4U2R8); assay: Inhibition of OAT1 (unknown origin)
[53] = Half-life in male Sprague-Dawley rat at 2 mg/kg, iv measured after 24 hrs by LC-MS/MS analysis; format: ADME, organism-based; conditions: in vivo
CYP3A4 = CYP3A4 (Homo sapiens, UniProt P08684); assay: Induction of CYP3A4 (unknown origin); format: ADME
[54] = Tmax in dog at 5 mg/kg, po; format: ADME, organism-based, Canis lupus familiaris; conditions: in vivo
[55] = MRT in mouse at 2 mg/kg, iv; format: ADME, organism-based; conditions: in vivo
Cytochrome P450 3A4 [56] = biological target: T1, Cytochrome P450 3A4; assay: Inhibition of CYP3A4 in human liver microsomes using midazolam as substrate; format: ADME, Microsome

T1 sequence (P08684 whole entry): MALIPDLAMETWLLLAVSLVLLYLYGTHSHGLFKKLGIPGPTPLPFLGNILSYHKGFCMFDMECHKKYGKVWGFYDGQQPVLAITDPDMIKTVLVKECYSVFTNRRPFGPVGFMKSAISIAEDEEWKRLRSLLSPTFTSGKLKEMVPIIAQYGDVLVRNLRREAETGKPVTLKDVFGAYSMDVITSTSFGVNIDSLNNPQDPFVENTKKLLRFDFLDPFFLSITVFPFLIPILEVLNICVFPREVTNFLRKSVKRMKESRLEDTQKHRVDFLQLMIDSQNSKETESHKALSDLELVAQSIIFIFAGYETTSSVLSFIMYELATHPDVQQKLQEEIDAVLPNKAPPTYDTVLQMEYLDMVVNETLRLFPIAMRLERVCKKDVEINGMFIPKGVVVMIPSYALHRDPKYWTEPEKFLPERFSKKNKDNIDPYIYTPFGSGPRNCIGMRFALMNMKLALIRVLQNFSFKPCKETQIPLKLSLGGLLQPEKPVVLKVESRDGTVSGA
Cytochrome P450 2C9, sequence (P11712 whole entry): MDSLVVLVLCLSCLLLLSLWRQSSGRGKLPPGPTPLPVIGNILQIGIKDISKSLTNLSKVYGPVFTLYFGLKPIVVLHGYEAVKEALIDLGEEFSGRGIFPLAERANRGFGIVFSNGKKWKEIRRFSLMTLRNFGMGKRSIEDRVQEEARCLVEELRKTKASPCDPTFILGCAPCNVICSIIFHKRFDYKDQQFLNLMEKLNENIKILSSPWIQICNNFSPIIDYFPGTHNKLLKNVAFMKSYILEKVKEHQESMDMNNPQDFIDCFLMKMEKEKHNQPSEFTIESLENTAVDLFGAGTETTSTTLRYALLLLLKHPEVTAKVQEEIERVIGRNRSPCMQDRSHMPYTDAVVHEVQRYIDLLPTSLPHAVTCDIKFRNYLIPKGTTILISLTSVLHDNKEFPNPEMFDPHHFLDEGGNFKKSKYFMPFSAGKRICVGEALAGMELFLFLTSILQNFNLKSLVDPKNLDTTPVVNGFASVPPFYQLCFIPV
Multidrug and toxin extrusion protein 1, sequence (Q96FL8 whole entry): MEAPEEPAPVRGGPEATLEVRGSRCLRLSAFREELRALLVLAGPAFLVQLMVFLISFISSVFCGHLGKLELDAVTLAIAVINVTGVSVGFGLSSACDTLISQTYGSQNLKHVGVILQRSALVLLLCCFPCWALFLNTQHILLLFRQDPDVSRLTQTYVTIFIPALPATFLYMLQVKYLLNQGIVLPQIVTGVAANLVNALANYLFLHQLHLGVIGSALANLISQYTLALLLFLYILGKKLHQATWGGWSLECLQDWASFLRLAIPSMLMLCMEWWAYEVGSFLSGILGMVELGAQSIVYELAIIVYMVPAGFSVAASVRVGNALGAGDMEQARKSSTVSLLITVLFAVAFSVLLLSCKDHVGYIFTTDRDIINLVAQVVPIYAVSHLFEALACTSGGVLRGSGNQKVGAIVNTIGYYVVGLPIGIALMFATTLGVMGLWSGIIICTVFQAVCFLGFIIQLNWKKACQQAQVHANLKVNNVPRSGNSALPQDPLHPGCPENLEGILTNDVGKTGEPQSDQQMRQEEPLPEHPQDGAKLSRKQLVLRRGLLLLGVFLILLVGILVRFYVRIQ
Cytochrome P450 2C19, sequence (P33261 whole entry): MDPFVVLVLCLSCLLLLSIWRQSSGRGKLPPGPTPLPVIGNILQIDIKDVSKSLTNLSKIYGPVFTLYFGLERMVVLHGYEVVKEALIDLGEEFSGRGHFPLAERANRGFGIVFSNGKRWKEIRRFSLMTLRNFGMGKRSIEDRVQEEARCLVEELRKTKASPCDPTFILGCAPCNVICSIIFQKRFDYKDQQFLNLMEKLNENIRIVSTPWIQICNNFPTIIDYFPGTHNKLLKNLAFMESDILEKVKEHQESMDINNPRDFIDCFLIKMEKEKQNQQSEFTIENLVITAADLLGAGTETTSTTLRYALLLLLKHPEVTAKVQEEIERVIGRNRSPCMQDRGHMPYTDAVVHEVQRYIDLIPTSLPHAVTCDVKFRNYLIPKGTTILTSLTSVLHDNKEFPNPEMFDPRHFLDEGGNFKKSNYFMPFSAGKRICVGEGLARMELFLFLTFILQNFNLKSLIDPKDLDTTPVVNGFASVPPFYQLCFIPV
Nuclear receptor subfamily 1 group I member 2, sequence (O75469 whole entry): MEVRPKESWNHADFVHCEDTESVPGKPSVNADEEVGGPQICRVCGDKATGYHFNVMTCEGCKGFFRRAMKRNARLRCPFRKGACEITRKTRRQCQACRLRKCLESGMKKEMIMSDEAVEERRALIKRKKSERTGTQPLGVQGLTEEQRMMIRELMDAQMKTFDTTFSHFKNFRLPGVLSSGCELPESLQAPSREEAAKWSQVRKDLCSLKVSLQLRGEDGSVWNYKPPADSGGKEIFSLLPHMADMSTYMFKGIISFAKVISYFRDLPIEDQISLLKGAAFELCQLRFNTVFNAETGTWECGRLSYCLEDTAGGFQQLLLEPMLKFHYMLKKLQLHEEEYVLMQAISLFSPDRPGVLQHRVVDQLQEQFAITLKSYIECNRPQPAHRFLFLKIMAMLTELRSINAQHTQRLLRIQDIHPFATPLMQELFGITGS
Solute carrier family 22 member 6, sequence (Q4U2R8 whole entry): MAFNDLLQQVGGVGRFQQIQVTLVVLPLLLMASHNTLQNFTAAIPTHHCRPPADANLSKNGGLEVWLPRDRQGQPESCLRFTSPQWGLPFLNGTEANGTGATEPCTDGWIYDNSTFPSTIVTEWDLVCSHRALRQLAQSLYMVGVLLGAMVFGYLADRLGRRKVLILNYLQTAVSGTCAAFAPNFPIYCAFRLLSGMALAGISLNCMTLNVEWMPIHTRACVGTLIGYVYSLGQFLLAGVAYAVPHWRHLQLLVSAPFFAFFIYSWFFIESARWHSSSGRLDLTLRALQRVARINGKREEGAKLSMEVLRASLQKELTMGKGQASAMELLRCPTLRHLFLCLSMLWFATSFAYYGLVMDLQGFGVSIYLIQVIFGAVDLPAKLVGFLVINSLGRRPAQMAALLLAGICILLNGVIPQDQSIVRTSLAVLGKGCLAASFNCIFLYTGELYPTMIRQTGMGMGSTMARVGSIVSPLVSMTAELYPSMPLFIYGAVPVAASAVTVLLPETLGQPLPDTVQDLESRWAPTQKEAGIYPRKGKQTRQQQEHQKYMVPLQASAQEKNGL
Hepatic sodium/bile acid cotransporter, sequence (Q14973 whole entry): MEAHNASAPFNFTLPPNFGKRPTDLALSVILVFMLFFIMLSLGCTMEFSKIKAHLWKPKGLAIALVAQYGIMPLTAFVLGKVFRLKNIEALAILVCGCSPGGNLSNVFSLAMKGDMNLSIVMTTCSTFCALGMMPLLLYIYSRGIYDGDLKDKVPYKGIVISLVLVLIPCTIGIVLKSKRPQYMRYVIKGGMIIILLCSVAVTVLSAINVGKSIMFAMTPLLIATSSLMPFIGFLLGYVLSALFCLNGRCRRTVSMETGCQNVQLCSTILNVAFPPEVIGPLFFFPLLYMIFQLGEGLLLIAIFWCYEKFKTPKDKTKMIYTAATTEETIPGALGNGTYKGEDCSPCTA
Inward rectifier potassium channel 13, sequence (O60928 whole entry): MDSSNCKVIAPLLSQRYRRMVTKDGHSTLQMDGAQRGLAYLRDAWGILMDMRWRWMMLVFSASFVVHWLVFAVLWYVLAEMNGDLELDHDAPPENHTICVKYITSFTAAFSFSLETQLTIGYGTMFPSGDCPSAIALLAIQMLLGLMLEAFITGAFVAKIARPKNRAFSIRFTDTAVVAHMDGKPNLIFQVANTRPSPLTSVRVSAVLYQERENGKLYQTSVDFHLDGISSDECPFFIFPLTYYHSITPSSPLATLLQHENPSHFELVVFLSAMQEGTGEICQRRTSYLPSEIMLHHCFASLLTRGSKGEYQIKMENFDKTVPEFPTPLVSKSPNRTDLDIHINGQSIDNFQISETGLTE
Cytochrome P450 2D6, sequence (P10635 whole entry): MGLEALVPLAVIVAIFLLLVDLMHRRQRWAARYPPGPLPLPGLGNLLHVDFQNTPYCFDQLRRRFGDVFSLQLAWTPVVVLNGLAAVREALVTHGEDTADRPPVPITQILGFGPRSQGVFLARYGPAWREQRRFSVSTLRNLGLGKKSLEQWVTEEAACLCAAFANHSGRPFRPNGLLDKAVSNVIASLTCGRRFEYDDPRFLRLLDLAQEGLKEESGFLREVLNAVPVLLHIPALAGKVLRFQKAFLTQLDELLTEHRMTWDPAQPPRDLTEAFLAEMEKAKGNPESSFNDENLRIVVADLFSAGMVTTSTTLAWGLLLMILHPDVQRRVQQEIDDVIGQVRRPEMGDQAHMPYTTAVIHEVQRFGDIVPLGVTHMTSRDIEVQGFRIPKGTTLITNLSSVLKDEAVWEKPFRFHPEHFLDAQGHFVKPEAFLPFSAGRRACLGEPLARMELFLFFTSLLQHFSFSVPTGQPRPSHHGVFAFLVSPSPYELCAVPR
CYP2B6, sequence (P20813 whole entry): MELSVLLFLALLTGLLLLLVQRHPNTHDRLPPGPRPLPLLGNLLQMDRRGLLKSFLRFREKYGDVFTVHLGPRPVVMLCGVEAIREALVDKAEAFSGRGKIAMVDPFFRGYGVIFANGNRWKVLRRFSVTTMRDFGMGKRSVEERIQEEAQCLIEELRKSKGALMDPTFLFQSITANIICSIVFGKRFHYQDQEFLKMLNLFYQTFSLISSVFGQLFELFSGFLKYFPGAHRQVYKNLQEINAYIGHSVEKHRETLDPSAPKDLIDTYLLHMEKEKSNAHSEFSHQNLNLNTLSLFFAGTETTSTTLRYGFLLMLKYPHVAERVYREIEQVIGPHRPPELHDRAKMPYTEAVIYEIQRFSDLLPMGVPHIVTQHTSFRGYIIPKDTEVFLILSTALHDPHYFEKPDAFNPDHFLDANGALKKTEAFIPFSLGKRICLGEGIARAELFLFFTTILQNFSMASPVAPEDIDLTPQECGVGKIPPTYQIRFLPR
Cytochrome P450 2B6, sequence (P20813 whole entry): as above
CYP3A4, sequence (P08684 whole entry): as the sequence (P08684 whole entry) above

For `Cc1cc(-n2ncc(CN3C[C@@H](c4ccc5c(c4C)COC5=O)N[C@@H](C)C3)n2)ncc1C#N`, the IC50 (Cytochrome P450 2D6) was > 40 µM, the IC50 (CYP2B6) was > 40 µM and the IC50 [1] was 2.7 µM. For the same molecule, the half-life [2] was 3.3 h, the IC50 [3] was > 100 µM and the Tmax [4] was 0.8 h. It also gave a Tmax [5] of 2 h, a PPB [6] of 52% and an AUC(0-t) [7] of 5.7 µM·h. The bioavailability [8] was 69%, the EC50 [9] was > 50 µM and the IC50 [10] was > 10 µM. It also gave an AUC(0-t) [11] of 14 µM·h, a Papp A→B [12] of 110 ×10⁻⁶ cm/s and a Vd [13] of 2.8 L/kg. The IC50 [14] was > 10 µM, the PPB [15] was 76% and the MRT [16] was 1.7 h. For the same molecule, the AUC(0-t) at 24 h [17] was 18 µM·h, the PPB [18] was 83% and the IC50 (Cytochrome P450 2C19) was > 40 µM. For the same molecule, the Activity [19] was “Not Active”, the IC50 [20] was > 18 µM and the IC50 [21] was > 10 µM. The Cmax [22] was 2800 nM, the PPB [23] was 68% and the Cmax [24] was 1900 nM. For the same molecule, the MRT [25] was 3.6 h, the IC50 (Cytochrome P450 3A4 [26]) was > 40 µM and the bioavailability [27] was 83%. For the same molecule, the permeability [28] was 570 10^-6 cm/s, the bioavailability [29] was 48% and the Tmax [30] was 0.25 h. The IC50 (Bile salt export pump) was 7 µM, the AUC(0-t) [31] was 5.5 µM·h and the IC50 [32] was > 10 µM. The IC50 [33] was > 18 µM, the solubility [34] was 30 µg/mL (≈ 0.0676 mM) and the Cmax [35] was 3800 nM. The Cmax [36] was 1000 nM, the IC50 [37] was > 18 µM and the IC50 [38] was > 18 µM. The remaining at 10 min, 10 µM [39] was 92%, the IC50 (CYP1A2) was > 40 µM and the bioavailability [40] was 76%. The solubility [41] was 14000 µg/mL (≈ 31.6 mM), the Vd [42] was 1.7 L/kg and the Vd [43] was 2.6 L/kg. For the same molecule, the IC50 [44] was > 18 µM, the IC50 (Cytochrome P450 2C8) was > 40 µM and the IC50 (Cytochrome P450 2C9) was > 40 µM. The half-life [45] was 4.2 h, the PPB [46] was 74% and the IC50 (Cytochrome P450 1A2) was > 40 µM. For the same molecule, the half-life [47] was 2.8 h, the Vd [48] was 5.1 L/kg and the IC50 [49] was > 18 µM. For the same molecule, the IC50 (Cytochrome P450 2B6) was > 40 µM, the remaining at 10 min, 10 µM [50] was 90% and the MRT [51] was 5.8 h. For the same molecule, the IC50 [52] was > 18 µM, the half-life [53] was 4.8 h and the IC50 (CYP3A4) was > 40 µM. The Tmax [54] was 0.8 h, the MRT [55] was 4 h and the IC50 (Cytochrome P450 3A4 [56]) was > 40 µM.
